Source: US12691112B2, “FGFR tyrosine kinase inhibitors for the treatment of urothelial carcinoma” (Janssen Pharmaceutica NV, priority 2019, dated 2026)

What was measured:
[1] = 10 patients, nine with disease progression on prior immunotherapy; cited from earlier work
urothelial cancer = experiment: Best response to prior chemotherapy before study enrolment, per investigator assessment; assay type: in vivo, human; settings: first-line chemotherapy before study enrolment; across all regimens
Text: Across all regimens, 184 patients had received first-line platinum-based chemotherapy, 83 had received second-line chemotherapy, and 24 had received third-line chemotherapy before study enrolment.

For `COCc1c(-c2cc3cc(C)cc(OC)c3s2)c2c(N)ncnn2c1CN1CCNC(=O)C1` [rogaratinib], the patients who responded [1] is listed as 30%.

With gemcitabine plus cisplatin the “best ORR per investigator assessment” value (urothelial cancer) was 35%.
